Source: ChEMBL document CHEMBL1201862, “PubChem BioAssay data set” (2004)
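These data come from cells grown in 96-well plates and exposed to compound for 48 hours at five concentrations. Here, GI50 denotes the concentration required for 50% inhibition of growth.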 The source made the active and inactive calls. Rule as the data show it: active = GI50 up to about 1.1 µM and inactive = higher.

Legend:
Assay in all cases: DTP human tumour cell line panel, 48 h
786-0 = test system: 786-0
A498 = test system: A498
A549 = test system: A549
ACHN = test system: ACHN
BT-549 = test system: BT-549
CAKI-1 = test system: CAKI-1
CCRF-CEM = test system: CCRF-CEM
COLO 205 = test system: COLO 205
DU-145 = test system: DU-145
EKVX = test system: EKVX
HCC 2998 = test system: HCC 2998
HCT-116 = test system: HCT-116
HCT-15 = test system: HCT-15
HL-60 = test system: HL-60
HOP-62 = test system: HOP-62
HOP-92 = test system: HOP-92
HT-29 = test system: HT-29
Hs-578T = test system: Hs-578T
IGROV-1 = test system: IGROV-1
K562 = test system: K562
KM12 = test system: KM12
LOX IMVI = test system: LOX IMVI
M14 = test system: M14
MCF7 = test system: MCF7
MDA-MB-435 = test system: MDA-MB-435
MDA-N = test system: MDA-N
MOLT-4 = test system: MOLT-4
Malme-3M = test system: Malme-3M
NCI-H226 = test system: NCI-H226
NCI-H23 = test system: NCI-H23
NCI-H460 = test system: NCI-H460
NCI-H522 = test system: NCI-H522
NCI/ADR-RES = test system: NCI/ADR-RES
OVCAR-3 = test system: OVCAR-3
OVCAR-4 = test system: OVCAR-4
OVCAR-5 = test system: OVCAR-5
OVCAR-8 = test system: OVCAR-8
PC-3 = test system: PC-3
RPMI-8226 = test system: RPMI-8226
RXF 393 = test system: RXF 393
SF-268 = test system: SF-268
SF-295 = test system: SF-295
SF-539 = test system: SF-539
SK-MEL-28 = test system: SK-MEL-28
SK-MEL-2 = test system: SK-MEL-2
SK-MEL-5 = test system: SK-MEL-5
SK-OV-3 = test system: SK-OV-3
SN12C = test system: SN12C
SNB-19 = test system: SNB-19
SNB-75 = test system: SNB-75
SR = test system: SR
SW-620 = test system: SW-620
T47D = test system: T47D
TK-10 = test system: TK-10
U-251 = test system: U-251
UACC-257 = test system: UACC-257
UACC-62 = test system: UACC-62
UO-31 = test system: UO-31

O=C1Nc2ccccc2/C1=C1/Nc2ccccc2/C1=N/OCCO
GI50 (786-0): 13 µM (inactive)
GI50 (A498): 0.213 µM (active)
GI50 (A549): 1.52 µM (inactive)
GI50 (ACHN): 0.352 µM (active)
GI50 (BT-549): 50.9 µM (inactive)
GI50 (CAKI-1): 0.175 µM (active)
GI50 (CCRF-CEM): > 100 µM (inactive)
GI50 (COLO 205): 3.99 µM (inactive)
GI50 (DU-145): 0.713 µM (active)
GI50 (EKVX): 0.662 µM (active)
GI50 (HCC 2998): 24.8 µM (inactive)
GI50 (HCT-116): 0.481 µM (active)
GI50 (HCT-15): 0.433 µM
GI50 (HL-60): 3.87 µM (inactive)
GI50 (HOP-62): > 100 µM (inactive)
GI50 (HOP-92): > 100 µM (inactive)
GI50 (HT-29): 2.44 µM (inactive)
GI50 (Hs-578T): 6.14 µM (inactive)
GI50 (IGROV-1): 0.274 µM (active)
GI50 (K562): > 100 µM (inactive)
GI50 (KM12): 0.149 µM (active)
GI50 (LOX IMVI): 0.69 µM (active)
GI50 (M14): 2.39 µM (inactive)
GI50 (MCF7): 1.86 µM (inactive)
GI50 (MDA-MB-435): 2.47 µM (inactive)
GI50 (MDA-N): 23 µM (inactive)
GI50 (MOLT-4): 0.8 µM (active)
GI50 (Malme-3M): 5.53 µM (inactive)
GI50 (NCI-H226): > 100 µM (inactive)
GI50 (NCI-H23): 0.656 µM (active)
GI50 (NCI-H460): 0.824 µM (active)
GI50 (NCI-H522): > 100 µM (inactive)
GI50 (NCI/ADR-RES): > 100 µM (inactive)
GI50 (OVCAR-3): 1.51 µM (inactive)
GI50 (OVCAR-4): > 100 µM (inactive)
GI50 (OVCAR-5): > 100 µM (inactive)
GI50 (OVCAR-8): > 100 µM (inactive)
GI50 (PC-3): 15.1 µM (inactive)
GI50 (RPMI-8226): > 100 µM (inactive)
GI50 (RXF 393): 5.85 µM (inactive)
GI50 (SF-268): > 100 µM (inactive)
GI50 (SF-295): 17.3 µM (inactive)
GI50 (SF-539): > 100 µM (inactive)
GI50 (SK-MEL-28): > 100 µM (inactive)
GI50 (SK-MEL-2): 0.457 µM (active)
GI50 (SK-MEL-5): 0.771 µM (active)
GI50 (SK-OV-3): 0.299 µM (active)
GI50 (SN12C): 29 µM (inactive)
GI50 (SNB-19): > 100 µM (inactive)
GI50 (SNB-75): > 100 µM (inactive)
GI50 (SR): 0.546 µM (active)
GI50 (SW-620): 14 µM (inactive)
GI50 (T47D): 5.62 µM (inactive)
GI50 (TK-10): 9.73 µM (inactive)
GI50 (U-251): > 100 µM (inactive)
GI50 (UACC-257): > 100 µM (inactive)
GI50 (UACC-62): 10.5 µM (inactive)
GI50 (UO-31): 0.363 µM (active)

COc1cc(/C=N/NC(=O)c2c(Cl)c(Cl)c(Cl)c(Cl)c2-c2nc3ccccc3[nH]2)ccc1O
GI50 (786-0): 28 µM (inactive)
GI50 (A498): 27.5 µM (inactive)
GI50 (A549): 29.9 µM (inactive)
GI50 (ACHN): 21.4 µM (inactive)
GI50 (BT-549): 21.1 µM (inactive)
GI50 (CAKI-1): 25.3 µM (inactive)
GI50 (CCRF-CEM): 21.9 µM (inactive)
GI50 (COLO 205): 22.3 µM (inactive)
GI50 (DU-145): 19.9 µM (inactive)
GI50 (EKVX): 19.2 µM (inactive)
GI50 (HCC 2998): 17.2 µM (inactive)
GI50 (HCT-116): 16.7 µM (inactive)
GI50 (HCT-15): 22 µM
GI50 (HL-60): 21.2 µM (inactive)
GI50 (HOP-62): 21.6 µM (inactive)
GI50 (HOP-92): 10.8 µM (inactive)
GI50 (HT-29): 22.2 µM (inactive)
GI50 (Hs-578T): 44 µM (inactive)
GI50 (IGROV-1): 14 µM (inactive)
GI50 (K562): 20.4 µM (inactive)
GI50 (KM12): 24.2 µM (inactive)
GI50 (LOX IMVI): 22.4 µM (inactive)
GI50 (M14): 24.7 µM (inactive)
GI50 (MCF7): 16.9 µM (inactive)
GI50 (MDA-MB-435): 29 µM (inactive)
GI50 (MDA-N): 24 µM (inactive)
GI50 (MOLT-4): 18 µM (inactive)
GI50 (Malme-3M): 21.7 µM (inactive)
GI50 (NCI-H226): 21.3 µM (inactive)
GI50 (NCI-H23): 19.9 µM (inactive)
GI50 (NCI-H460): 19.1 µM (inactive)
GI50 (NCI-H522): 30.6 µM (inactive)
GI50 (NCI/ADR-RES): > 100 µM (inactive)
GI50 (OVCAR-3): 27.3 µM (inactive)
GI50 (OVCAR-5): 27.9 µM (inactive)
GI50 (OVCAR-8): 31.1 µM (inactive)
GI50 (PC-3): 29.4 µM (inactive)
GI50 (RXF 393): 20.2 µM (inactive)
GI50 (SF-268): 32.5 µM (inactive)
GI50 (SF-295): 24.1 µM (inactive)
GI50 (SF-539): 26.7 µM (inactive)
GI50 (SK-MEL-28): 33.6 µM (inactive)
GI50 (SK-MEL-2): 20.3 µM (inactive)
GI50 (SK-MEL-5): 14.9 µM (inactive)
GI50 (SK-OV-3): 35.5 µM (inactive)
GI50 (SN12C): 24.2 µM (inactive)
GI50 (SNB-19): 30.5 µM (inactive)
GI50 (SNB-75): 22.9 µM (inactive)
GI50 (SW-620): 34.4 µM (inactive)
GI50 (T47D): 0.56 µM (active)
GI50 (UACC-257): 29.3 µM (inactive)
GI50 (UACC-62): 15.8 µM (inactive)
GI50 (UO-31): 22.4 µM (inactive)
